Laboratory results as given in patent publication US8097624B2, “Cycloalkyl derivatives of 3-hydroxy-4-pyridinones” (Apotex Inc., priority 2006, dated 2012).
Structures can show the parent of a compound that is named as a salt. Where two headings read alike, the source gives them in different places.

Key:
[1] = Distribution coefficient determination (D7.4), 1-octanol / MOPS buffer; type: physicochemical; details: 1-octanol / MOPS buffer pH 7.4
Description: MOPS buffer (50 mM, pH=7.4) and 1-octanol were used as the aqueous phase and the organic phase, respectively, for distribution coefficient determinations. The MOPS buffer and 1-octanol were pre-saturated with each other before use.
In a typical experiment, an organic stock solution of Apo6618 (1-cyclopropyl-3-hydroxy-6-methyl-4-oxo-1,4-dihydro-pyridine-2-carboxylic acid cyclopropylamide) was prepared by weighing out 0.50 mg of the compound into a 10-mL volumetric flask and bringing to volume with 1-octanol. The solution was then sonicated for 60 minutes so that the sample could dissolve completely. The concentration of the stock solution was calculated as C^0org=2.0×10^−4 M. The organic standard solution of Apo6618 with 2.0×10^−5 M was prepared in a 10-mL volumetric flask by 10 times dilution of the stock solution with 1-octanol. The sample solution was prepared in a 10-mL volumetric flask. The stock sample solution (3 ml) was pipetted into the flask followed by the addition of MOPS buffer (3 ml). The standard and sample solutions were then vortexed for 2 hours. After vortexing, the solutions were transferred to test tubes and centrifuged at 4000 rpm for 15 minutes. UV-Vis spectra were recorded for the standard solution and the organic (top) phase of the sample solution at 22° C. The distribution coefficient, D7.4, was calculated using the following equation: D7.4=[Aorg/(C^0orgεorg−Aorg)]×(Vaqu/Vorg)
Where εorg=the molar extinction coefficient of the peak wavelength (λmax) obtained from the UV-Vis spectrum of the organic standard solution; Aorg=absorbance of the organic phase in the sample solution at the same λmax; C^0org=the concentration of the stock solution; Vaqu=the volume of MOPS buffer in the sample solution; Vorg=the volume of the stock solution in the sample solution.

[2] = pKa determination by potentiometric or spectrophotometric titration; type: physicochemical; details: titration in 0.1 M NaCl at 22° C.
Description: The pKa values of ligands were determined by potentiometric titration when a ligand concentration greater than 1×10^−2 M in water could be prepared. In a typical experiment, the sample solution (2.67×10^−2 M) was prepared by the following method: Apo6619 (92.6 mg) was weighed into a 25-ml beaker, followed by the addition of 0.1 M NaCl (15 ml). The mixture was sonicated for 10 minutes to give a clear colorless solution. Nitrogen gas was then allowed to bubble through the solution. 1.000 N Hydrochloric acid (624 μl, 1.5 equivalent) was added to the solution to give pH 1.88. The solution was allowed to equilibrate at 22° C. for 60 minutes.
The solution was then titrated against 1.000 N NaOH at 22° C. to reach pH 11.8. For each addition of base, the solution was allowed to equilibrate until a constant pH reading was reached. The volume of the base added and the pH reading were recorded for each measurement. 137 measurements were taken to finish the experiment.
The data set of pH vs. base volume was analyzed using Hyperquad 2000 (Version 2.1, Peter Gans, University of Leeds).
The pKa values of ligands can be determined by spectrophotometric titration when both the conjugated acid and base absorb in the UV-Visible region. In a typical experiment, the sample solution was prepared by the following method: Apo6617 (0.792 mg) was weighed into an 80-ml beaker, followed by the addition of 0.1 M NaCl (50 ml). The mixture was sonicated for 5 minutes to give a clear colorless solution. Nitrogen gas was allowed to bubble through the solution. 1.000 N NaOH (50 μl) was added to give pH 10.9. The solution was allowed to equilibrate at 22° C. for 1 hour. A sipper system was used for the circulation of the sample solution between the beaker and the flow cell.
The sample solution was titrated against standard hydrochloric acid solutions at 22° C. to reach pH 1.40. After each addition of acid the solution was allowed to equilibrate until a constant pH reading was reached. The pH and the UV-Vis spectrum were recorded for each measurement. The peak wavelengths of the deprotonated species (L^−), the neutral species (LH), and the protonated species (LH2^+) were 314 nm, 281 nm, and 249 nm, respectively. In the region of pH>6, after each addition of acid there was a slight decrease in the absorbance at 314 nm and a slight increase at 281 nm in each spectrum, whereas in the region of pH<5, after each addition of acid there was a slight decrease in the absorbance at 281 nm and a slight increase at 249 nm in each spectrum. The solution was titrated until there was no obvious change in the spectra after several subsequent additions of acid. 116 measurements were taken to finish the experiment.
The resulting data set was then analyzed using pHAB (Peter Gans, University of Leeds).

[3] = Metal complexation constants, Fe system (spectrophotometric titration; pM by Hyss); type: binding; details: for Log β3: Fe(III) overall complexation constant; for pFe^3+: total iron 10^−6 M, ligand 10^−5 M, pH 7.4, calculated from experimental pKa and complexation constants
Description: Compounds of this invention are designed to improve properties to known deferiprone analogues. […]. The definition of pFe^3+ used herein is the concentration of ferric ion in solution when the total amount of iron equals 10^−6 M and the concentration of ligand is 10^−5 M and pH is 7.4. It is calculated using experimental determined pKa and metal complexation constants using Hyperquad software (Version 2.1, Peter Gans, University of Leeds). The lowering of the pKa value of the C3 phenolic OH to less than 8.8 ensures that a higher pFe^3+ value when combined with a favorable complexation constant β3. The concept of complexation is detailed below.
The stepwise and overall complexation constants of a bidentate ligand such as 3-hydroxy-4-pyridinone follow: Fe(III)+Ligand→Fe[Ligand]1K1 Fe[Ligand]1+Ligand→Fe[Ligand]2K2 Fe[Ligand]2+Ligand→Fe[Ligand]3K3 Complexation constant β3=K1.K2.K3
Stepwise formation constants for M^n+-ligand systems were determined by spectrophotometric titration when metal complexes have a strong absorbance in the visible region due to ligand to metal charge transfer. In a typical experiment, the sample solution was prepared according to the following method: Apo6619 (10.7 mg) was weighed into an 80-ml beaker, followed by the addition of 0.1 M NaCl (50 ml). The mixture was sonicated for 10 minutes to give a clear colorless solution. Iron stock solution (atomic absorption standard, Aldrich, 496 μl, 8.93E-06 moles) was pipetted into the solution followed by the addition of 1.000 N NaOH (137 μl). The molar ratio between the total iron and the total Apo6619 was 1:5.4. The mixture was allowed to equilibrate at room temperature overnight. Nitrogen was allowed to bubble through the solution. 1.000 N Hydrochloric acid (3 ml) was then added to the solution to give pH 1.5. The solution was allowed to equilibrate at 22° C. for 3 hours.
A sipper system was used for the circulation of the sample solution between the beaker and the flow cell.
The sample solution was titrated against standard NaOH solutions at 22° C. to reach pH 6.89. After each addition of base the solution was allowed to equilibrate until a constant pH reading was reached. The pH and the UV-Vis spectrum were recorded for each measurement. For each measurement enough base was added so that there was a slight increase in the absorbance of the spectrum. The solution was titrated until there was no obvious increase in the spectra after several subsequent additions of base. Altogether 64 measurements were taken to finish the experiment.
[…]; pM^n+ is defined as −log [M(H2O)m]^n+ at physiological conditions, i.e.: pH 7.4, a ligand concentration of 10 μM, and a metal concentration of 1 μM.
To calculate pM^n+ for a MLn system, βn and pKa values are needed (βn are the formation constants for M^n++n L^− ? MLn; pKa are the equilibrium constants for L^−+n H^+ ? LHn^(n−1)+). The pM^n+ can be calculated by using Hyss software (Hyperquad Stimulation and Speciation software: HYSS2© 2000 Protonic Sofware).

[4] = Redox potentials of iron complexes by cyclic voltammetry; type: physicochemical; details: glassy carbon working electrode, 2.0 mM, pH 7.4; for E1/2 / Ep^ox / Ep^red: vs Ag/AgCl
[5] = cited from earlier work
[6] = U.S. Pat. No. 6,335,353; cited from earlier work

Compound | D7.4 [1] | pKas (higher value, phenolic C3 OH) [2] | pKas (lower value, LH2+) [2] | Log β3 [3] | pFe^3+ [3] | other results
Cc1c([O-])c(=O)ccn1C.Cc1c([O-])c(=O)ccn1C.Cc1c([O-])c(=O)ccn1C.[Fe+3] [Fe(deferiprone)3] |  |  |  |  |  | ΔEp [4]: 107 mV; E1/2 [4]: −834 mV; Ep^ox [4]: −780 mV; Ep^red [4]: −887 mV
CC(=O)N([O-])CCCCCNC(=O)CCC(=O)N([O-])CCCCCNC(=O)CCC(=O)N([O-])CCCCCN.[Fe+3] [Fe(DFO)] |  |  |  |  |  | E1/2 literature value ([5]; vs Ag/AgCl, Crumbliss et al, Inorganic Chemistry 2003): −688 mV; ΔEp [4]: 112 mV; E1/2 [4]: −698 mV; Ep^ox [4]: −642 mV; Ep^red [4]: −754 mV
Fe-transferrin: iron bound to transferrin in human blood |  |  |  |  |  | E1/2 ([5]; vs. Ag/AgCl): −720 mv; E1/2 ([5]; vs. NHE): −500 mv
Cc1cc(=O)c(O)c(C(=O)NC2CC2)n1C1CC1 [Apo6618, 1-Cyclopropyl-3-hydroxy-6-methyl-4-oxo-1,4-dihydro-pyridine-2-carboxylic Acid Cyclopropylamide] | 0.331 | 8.6 | 2.5 | 33.6 | 20.5 | 
Cc1cc(=O)c(O)c(C(=O)NC2CCCCC2)n1C [Apo6621, 3-Hydroxy-1,6-dimethyl-4-oxo-1,4-dihydro-pyridine-2-carboxylic Acid Cyclohexylamide] | 2.2 | 8.7 | 2.5 | 34.3 | 20.9 | 
CNC(=O)c1c(O)c(=O)cc(C)n1C [CP502, 1,6-Dimethyl-3-hydroxy-4(1H)-pyridinone-2-carboxy-(N-methyl)-amide hydrochloride, reference compound] | 0.04 | 8.5 | 2.7 | 33.6 | 20.9 | O-glucuronidation at the C3 oxygen [6]: effectively blocked the O-glucuronidation

Further lines, with some results ahead:

D7.4 [1] | pKas (higher value, phenolic C3 OH) [2] | pKas (lower value, LH2+) [2] | Compound | Log β3 [3] | pFe^3+ [3] | other results
0.78 | 8.7 | 2.7 | Cc1cc(=O)c(O)c(C(=O)NC2CCCC2)n1C [Apo6620, N-cyclopentyl-3-hydroxy-1,6-dimethyl-4-oxo-1,4-dihydro-pyridine-2-carboxamide] | 33.8 | 20.3 | melting point: 289.3 °C (dec.)
0.357 | 8.6 | 2.8 | Cc1cc(=O)c(O)c(C(=O)NC2CCC2)n1C [Apo6622, N-cyclobutyl-3-hydroxy-1,6-dimethyl-4-oxo-1,4-dihydropyridine-2-carboxamide] | 33.9 | 20.8 | 
